From US20250347692A1, “METHOD FOR DETERMINING THE RESPONSE TO METHOTREXATE (MTX) IN A HUMAN SUBJECT DIAGNOSED WITH RHEUMATOID ARTHRITIS” (BIOHOPE SCIENTIFIC SOLUTIONS FOR HUMAN HEALTH, S.L, priority 2022, published 2025)

Tested on: PBMCs from naïve RA patients
Assay: ROS TEST: ROS production of PHA-activated PBMCs exposed to MTX, fluorimetry
Format: cell-based, human
Details: PBMCs of naïve RA patients with clinical remission at 6 months of methotrexate (n=17) versus those without (n=8), E. coli stimulated, ANOVA p 0.0003
Text: Therefore, the decision was made to investigate a model of in vitro exposure of RA patients' cells to MTX and the measurement of its direct effect as a pharmacodynamic biomarker of response. […] Therefore, the hypothesis is that treatment of PBMCs with the drug methotrexate causes an increase in reactive oxygen species (ROS) production due to increased apoptosis in T lymphocytes in responder patients. […] Based on the above, in the present example the above two assays will be carried out using PBMCs obtained or isolated from RA patients. Briefly, first, a peripheral blood draw is performed from a rheumatoid arthritis patient who meets the inclusion criteria indicated below in the “Methodology” section, and peripheral blood mononuclear cells (PBMCs) are isolated by density gradient. These PBMCs are frozen and maintained in liquid nitrogen for a time period of at least two weeks. After this time, the PBMCs are thawed and incubated in a flat-bottomed p96 plate at 37° C. and 5% CO2 for 24 hours. The next day, phytohemagglutinin (PHA) and MTX are added to the corresponding wells and the plate is incubated for 48 hours. Finally, the probes corresponding to each test are added: • ROS test: ROS probe+E. coli • MONOCYTE test: resazurin Both tests were carried out on the same plate, read at Ex/Em 535/610 wavelengths, in a fluorescence reader.

SMILES: CN(Cc1cnc2nc(N)nc(N)c2n1)c1ccc(C(=O)N[C@@H](CCC(=O)O)C(=O)O)cc1 [MTX, methotrexate]
- ROS production levels (fluorescence units) after exposure of PBMCs to MTX: significantly increased
